Structures are written as SMILES.

Broadly, the IC50 is the midpoint of a concentration-inhibition curve. Lower therefore signals greater potency.

One experiment concerns the target JAK1 (Homo sapiens (Human), UniProt P23458). Put plainly: JAK1 LANCE Ultra kinase assay. It counts as biochemical. The conditions noted are these: for IC50: 38 uM ATP; for JAK2/JAK1: ratio of IC50 JAK2 to IC50 JAK1. Put shortly: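 JAK1 preincubated with compound 10 min at room temperature, then ULight-JAK-1 peptide/ATP added for 90 min at room temperature; stopped with EDTA, Eu-W1024 anti-phosphotyrosine TR-FRET read after 60 min. Inhibition normalised to DMSO and blank wells; IC50 from curve fit.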
(In TR-FRET formats the signal depends on donor and acceptor labels being close together.)

A further experiment concerns TF-1 cell. The experiment in a line: TF-1 cell proliferation test. As to conditions: Homo sapiens, 72 h. In kind it is cell-based. The procedure:
Inhibiting test of the compounds of the invention on proliferation of Blast T cell and TF-1 cell (American type culture collection) was carried out by the following method. The tested compounds […], and […] were dissolved in dimethyl sulfoxide from 0.0006 to 10 μM in quadruplicate dilutions. […] The luminescence value was read on Microplate Reader (Molecular Device). […] The IC50 values of the corresponding compounds were then obtained by fitting by using the XLFit fitting tool in excel.

The subject of another experiment is Blast T cell. The experiment in a line: Cell proliferation test of IL-2 stimulated Blast T cell. In kind it is cell-based. As to conditions: Homo sapiens; IL-2 stimulated Blast T cell proliferation, 72 hours. How it is done: Inhibiting test of the compounds of the invention on proliferation of Blast T cell and TF-1 cell (American type culture collection) was carried out by the following method. The tested compounds […], and […] were dissolved in dimethyl sulfoxide from 0.0006 to 10 μM in quadruplicate dilutions. […] 10 μg/ml […] was added to stimulate and obtain cells with a density of 2×10^6/mL, which were incubated for 3 days. The cells were washed with phosphate buffer for three times and IL-2 (100 u/ml) was added to stimulate for 1 week. Cells were suspended using the culture medium and seeded at 5×10^4 cell/well density into 96-well plates, and incubated for 1 h with the prepared test compound or DMSO control at various concentrations from 0.0006 to 10 μM diluted by 4-fold volume. After incubation with 20 u/ml of IL-2 (50 μl/well without reference well) for 72 hours, Celltiter Glo® reagent (Promega, G7571) was added and mixed for 5 minutes, then incubated for 30 minutes at room temperature. The luminescence value was read on SpectraMax L (Molecular Device). […] The IC50 values of the corresponding compounds were then obtained by fitting by using the XLFit fitting tool in excel.

In the next experiment the target is JAK3 (Homo sapiens (Human), UniProt P52333). The experiment in a line: JAK3 LANCE Ultra kinase assay. In kind it is biochemical. The conditions noted are these: 4 uM ATP.
A further experiment has as its target JAK2 (Homo sapiens (Human), UniProt O60674). Put plainly: JAK2 LANCE Ultra kinase assay. It counts as biochemical. The conditions noted are these: 12 uM ATP.
Another experiment has as its system male ICR mice. The experiment in a line: Carrageenan-induced paw swelling in mice. As to conditions: 10 mg/kg intragastric. In kind it is in vivo. How it is done:
The inhibiting effects of compounds H01, H07, H11, H12, H14, H15, H22, H25, H29, H30, H33, H39 and H44 on paw swelling in mice were determined after intragastric administration by using male ICR mice (ShanghaiSippr-BK laboratory animal Co. Ltd.), aged 8 weeks and weighing 22-24 g as test animals. The anti-inflammatory pharmacodynamics characteristic of the compounds of the invention was discussed.
A certain amount of compounds were taken and dissolved in 4% Tween 80/0.5% hydroxy propyl methyl cellulose solution. A volume of intragastric administration in mice was 10 ml/kg.
Mice were given 10 mg/kg compounds H01, H07, H11, H12, H14, H15, H22, H25, H29, H30, H33, H39, and H44 and the positive drug indomethacin (Diamond Reagent Co., Ltd., China) by intragastric administration at the dosages shown in the table below and 20 μL 1% (W/V) carrageenan was injected subcutaneously into the plantar 0.5 h later. A paw volume was measured with a paw swelling meter before and at different time points after modeling (0.5 h, 1 h and 2 h). According to the formula: paw swelling rate=(paw volume after administration−basic paw volume)/basic paw volume×100, the inhibiting effect of the compounds on paw volume was calculated. The basic paw volume was a paw volume before administration.
For orientation: The carrageenan paw model is a standard test of acute inflammation.

For a further experiment, the system named is Sprague-Dawley (SD) mice. The experiment in a line: Concanavalin-induced paw swelling in mice. In kind it is in vivo. As to conditions: 10 mg/kg intragastric. How it is done: The inhibiting effects of compounds H13, H14, H09, H11 and compounds of Example 12 on paw swelling in […] were determined after intragastric administration by using Sprague-Dawley (SD) […] (ShanghaiSippr-BK laboratory animal Co. Ltd.), aged 6-7 weeks and weighing 160-180 g as test animals. The anti-inflammatory pharmacodynamics characteristic of the compounds of the invention was discussed.
A certain amount of compounds were taken and dissolved in 4% Tween 80/0.5% hydroxy propyl methyl cellulose solution.
Mice were given compounds H01, H07, H11, H12, H14, H15, H22, H25, H29, H30, H33, H39, and H44 and the positive drug indomethacin (Diamond Reagent Co., Ltd., China) by intragastric administration at the dosages shown in the table below and 0.1 ml 0.03% (W/V) concanavalin was injected subcutaneously into the plantar 0.5 h later. A paw volume was measured with a paw swelling meter before modeling and 1 h, 2 h, 4 h and 6 h after modeling. According to the formula: paw swelling rate=(paw volume after administration−basic paw volume)/basic paw volume×100, the inhibiting effect of the compounds on paw volume was calculated. The basic paw volume was a paw volume before administration.

Sequence of JAK3 (P52333 whole entry): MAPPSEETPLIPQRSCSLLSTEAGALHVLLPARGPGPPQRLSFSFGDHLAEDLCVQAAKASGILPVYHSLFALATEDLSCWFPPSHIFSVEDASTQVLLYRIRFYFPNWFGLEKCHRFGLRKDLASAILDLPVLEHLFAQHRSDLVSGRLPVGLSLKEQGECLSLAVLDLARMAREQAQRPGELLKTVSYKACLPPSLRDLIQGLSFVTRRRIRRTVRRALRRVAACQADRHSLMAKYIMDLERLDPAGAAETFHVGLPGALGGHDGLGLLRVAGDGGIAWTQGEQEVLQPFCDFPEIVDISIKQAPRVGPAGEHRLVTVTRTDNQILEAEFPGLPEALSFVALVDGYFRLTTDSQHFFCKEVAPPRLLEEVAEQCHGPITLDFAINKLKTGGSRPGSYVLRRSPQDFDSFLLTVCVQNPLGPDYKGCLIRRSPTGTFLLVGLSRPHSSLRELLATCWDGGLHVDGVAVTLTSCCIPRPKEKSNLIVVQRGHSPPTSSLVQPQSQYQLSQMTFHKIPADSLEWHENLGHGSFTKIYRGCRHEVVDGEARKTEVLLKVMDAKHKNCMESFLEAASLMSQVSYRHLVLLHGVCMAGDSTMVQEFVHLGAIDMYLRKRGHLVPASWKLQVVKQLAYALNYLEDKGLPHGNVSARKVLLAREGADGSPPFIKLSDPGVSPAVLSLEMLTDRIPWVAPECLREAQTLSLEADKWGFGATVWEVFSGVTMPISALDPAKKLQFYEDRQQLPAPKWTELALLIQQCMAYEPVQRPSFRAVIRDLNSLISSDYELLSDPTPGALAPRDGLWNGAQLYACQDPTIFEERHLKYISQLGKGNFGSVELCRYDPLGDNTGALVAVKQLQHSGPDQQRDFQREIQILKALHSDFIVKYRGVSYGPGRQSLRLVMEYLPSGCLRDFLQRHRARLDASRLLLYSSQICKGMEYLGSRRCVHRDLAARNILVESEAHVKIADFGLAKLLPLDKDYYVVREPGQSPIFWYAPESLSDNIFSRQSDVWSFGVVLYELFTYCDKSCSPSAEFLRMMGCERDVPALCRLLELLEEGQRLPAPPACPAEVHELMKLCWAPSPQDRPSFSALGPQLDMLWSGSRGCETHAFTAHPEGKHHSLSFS
Sequence of JAK2 (O60674 whole entry): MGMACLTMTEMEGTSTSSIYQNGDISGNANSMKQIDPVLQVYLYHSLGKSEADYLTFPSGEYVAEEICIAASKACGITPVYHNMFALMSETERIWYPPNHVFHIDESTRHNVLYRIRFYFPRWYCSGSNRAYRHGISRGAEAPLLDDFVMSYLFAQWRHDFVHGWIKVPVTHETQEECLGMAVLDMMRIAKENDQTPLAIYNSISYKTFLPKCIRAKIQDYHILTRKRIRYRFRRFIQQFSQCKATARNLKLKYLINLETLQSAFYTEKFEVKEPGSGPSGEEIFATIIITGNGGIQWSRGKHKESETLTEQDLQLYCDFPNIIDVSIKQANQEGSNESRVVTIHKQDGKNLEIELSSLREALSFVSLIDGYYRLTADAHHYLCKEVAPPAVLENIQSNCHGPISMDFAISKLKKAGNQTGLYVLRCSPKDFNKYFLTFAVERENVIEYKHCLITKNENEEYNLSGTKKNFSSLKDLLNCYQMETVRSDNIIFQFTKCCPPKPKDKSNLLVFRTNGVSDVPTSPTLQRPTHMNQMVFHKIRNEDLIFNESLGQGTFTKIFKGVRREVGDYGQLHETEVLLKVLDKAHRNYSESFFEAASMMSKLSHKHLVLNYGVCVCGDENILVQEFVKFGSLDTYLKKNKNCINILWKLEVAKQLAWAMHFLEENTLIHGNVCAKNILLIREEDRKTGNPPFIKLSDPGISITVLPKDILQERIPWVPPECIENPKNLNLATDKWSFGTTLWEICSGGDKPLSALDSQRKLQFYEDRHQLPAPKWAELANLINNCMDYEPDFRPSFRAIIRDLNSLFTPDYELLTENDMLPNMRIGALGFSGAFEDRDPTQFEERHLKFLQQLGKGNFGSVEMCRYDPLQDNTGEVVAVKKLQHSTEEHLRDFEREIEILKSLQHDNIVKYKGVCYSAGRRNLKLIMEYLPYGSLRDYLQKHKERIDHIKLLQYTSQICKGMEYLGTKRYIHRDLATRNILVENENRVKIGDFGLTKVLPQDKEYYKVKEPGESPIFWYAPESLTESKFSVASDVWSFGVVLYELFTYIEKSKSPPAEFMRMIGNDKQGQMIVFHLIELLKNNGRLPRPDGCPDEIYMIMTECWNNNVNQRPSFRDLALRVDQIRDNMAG
Sequence of JAK1 (P23458 whole entry): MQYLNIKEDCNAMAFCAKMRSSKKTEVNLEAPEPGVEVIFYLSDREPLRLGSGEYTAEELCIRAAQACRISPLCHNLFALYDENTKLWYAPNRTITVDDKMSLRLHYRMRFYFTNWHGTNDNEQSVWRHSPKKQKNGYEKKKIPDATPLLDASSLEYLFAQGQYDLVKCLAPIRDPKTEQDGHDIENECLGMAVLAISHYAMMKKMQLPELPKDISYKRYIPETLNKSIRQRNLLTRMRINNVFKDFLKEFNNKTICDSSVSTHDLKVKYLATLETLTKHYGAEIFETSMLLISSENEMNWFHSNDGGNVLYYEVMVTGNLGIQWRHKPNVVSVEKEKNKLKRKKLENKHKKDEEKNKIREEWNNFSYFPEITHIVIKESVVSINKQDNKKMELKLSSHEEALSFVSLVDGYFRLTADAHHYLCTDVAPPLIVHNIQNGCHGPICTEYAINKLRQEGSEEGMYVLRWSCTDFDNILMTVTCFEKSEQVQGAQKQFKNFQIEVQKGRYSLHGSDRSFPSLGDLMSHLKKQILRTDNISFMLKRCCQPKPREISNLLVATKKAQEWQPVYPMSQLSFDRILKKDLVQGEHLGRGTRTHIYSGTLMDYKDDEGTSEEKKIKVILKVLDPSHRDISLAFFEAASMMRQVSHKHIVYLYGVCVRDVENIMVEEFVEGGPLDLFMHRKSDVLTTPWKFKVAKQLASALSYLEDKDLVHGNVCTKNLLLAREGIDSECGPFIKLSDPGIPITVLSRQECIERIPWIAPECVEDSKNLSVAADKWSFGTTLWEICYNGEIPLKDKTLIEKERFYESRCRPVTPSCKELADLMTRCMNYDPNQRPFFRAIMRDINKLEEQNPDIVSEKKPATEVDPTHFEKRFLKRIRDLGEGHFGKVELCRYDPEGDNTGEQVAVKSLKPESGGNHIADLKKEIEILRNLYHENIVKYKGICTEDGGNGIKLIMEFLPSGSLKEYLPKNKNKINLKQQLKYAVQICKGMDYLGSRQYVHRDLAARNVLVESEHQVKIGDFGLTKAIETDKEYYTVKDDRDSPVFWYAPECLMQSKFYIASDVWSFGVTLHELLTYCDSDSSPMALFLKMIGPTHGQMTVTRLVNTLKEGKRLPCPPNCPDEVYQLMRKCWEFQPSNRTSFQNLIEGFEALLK

On to `CC[C@@H]1CN(C(=O)CC(F)(F)F)C[C@@H]1N(C)c1c(C#N)cnc2[nH]ccc12` (relative stereo) [Compound H03, (cis)-4-{[4-ethyl-1-(3,3,3-trifluoropropionyl)pyrrolidin-3-yl]-methyl-amino}-1H-pyrrolo[2,3-b]pyridin-5-carbonitrile], for which the IC50 at JAK1 was 2.86 nM; with TF-1 cell it was 0.76 µM; with Blast T cell, 0.027 µM; against JAK3 it was 133 nM; on JAK2, 22 nM. The JAK2/JAK1 at JAK1 is on record as 7.69.

For the compound `CC[C@@H]1CN(C(=O)NC(C)C(C)C)C[C@@H]1Nc1c(C#N)cnc2[nH]ccc12` (relative stereo) [Compound H85, (cis)-3-((5-cyano-1H-pyrrolo[2,3-b]pyridin-4-yl)amino)-4-ethyl-N-(3-methylbutane-2-yl) pyrrolidin-1-carboxamide], the half-maximal inhibitory concentration (IC50) worked out at 5.47 nM at JAK1; 1.47 µM with TF-1 cell; 0.032 µM in the experiment on Blast T cell; 48 nM on JAK3; 15.7 nM on JAK2. The JAK2/JAK1 at JAK1 was 2.86.

Regarding `CC[C@@H]1CN(C(=O)NCC(F)(F)F)CC1N(C)c1c(C#N)cnc2[nH]ccc12` (stereo partly shown) [Compound H02], the IC50 in the experiment with TF-1 cell stood at 1.34 µM; in the experiment with Blast T cell it was 0.48 µM.

Take `N#Cc1cnc2[nH]ccc2c1N[C@H]1C[C@@H](NS(=O)(=O)c2cccc3nonc23)C1` [Compound H19, (cis)-4-{[3-(benzo[c][1,2,5]oxadiazole-4-sulfonamido)-cyclobutyl-1-yl]-amino}-1H-pyrrolo[2,3-b]pyridin-5-carbonitrile]: the IC50 came out at 2.3 µM in the experiment with TF-1 cell and 0.024 µM in the experiment on Blast T cell.

Take `N#Cc1cnc2[nH]ccc2c1NC1CCN(S(=O)(=O)c2cccc(C(F)(F)F)c2)CC1` [Compound H34]: the IC50 in the experiment on TF-1 cell stood at 1.54 µM; with Blast T cell, 0.044 µM.

Take `CNc1nsc(NC(=O)N2C[C@H]3C[C@H](N(C)c4c(C#N)cnc5[nH]ccc45)C[C@H]3C2)n1` [Compound H41, (3aR,5s,6aS)-5-((5-cyano-1H-pyrrolo[2,3-b]pyridin-4-yl)(methyl)amino)-N-(3-(methylamino)-1,2,4-thiadiazole-5-yl)hexahydrocyclopentadiene[c]pyrrole-2(1H)-carboxamide]: the 50% inhibitory concentration (IC50) with TF-1 cell was determined as 1.64 µM; in the experiment with Blast T cell, 0.055 µM.

Regarding `CC[C@@H]1CC(NS(=O)(=O)c2cccc3nonc23)C[C@@H]1Nc1c(C#N)cnc2[nH]ccc12` (stereo partly shown) [Compound H58, N-(3-((5-cyano-1H-pyrrolo[2,3-b]pyridin-4-yl)amino)-4-ethylcyclopentyl)benzo[c][1,2,5] oxadiazole-4-sulfamide], the IC50 with TF-1 cell turned out to be 0.98 µM; in the experiment on Blast T cell, 0.041 µM.

Consider `N#Cc1cn2c(n1)CC(Nc1c(C#N)cnc3[nH]ccc13)CC2` (stereo not shown) [Compound H90, 7-((5-cyano-1H-pyrrolo[2,3-b]pyridin-4-yl)amino)-5,6,7,8-tetrahydroimidazo[1,2-a]pyridin-2-carbonitrile], for which the IC50 was determined as 0.76 nM against JAK1, 68 nM at JAK3 and 5.71 nM against JAK2. The JAK2/JAK1 at JAK1 is given as 7.51.

For the compound `CC[C@@H]1CN(C(=O)NCC#N)C[C@@H]1Nc1c(C(F)(F)F)cnc2[nH]ccc12` [Compound H93, (cis)-3-ethyl-N-(cyanmethyl)-4-((5-(trifluoromethyl)-1H-pyrrolo[2,3-b]pyridin-4-yl)amino)pyrrolidin-1-carboxamide], the 50% inhibitory concentration (IC50) against JAK1 was 0.64 nM; against JAK3 it was 79 nM; on JAK2 it was 7.1 nM. In addition, the JAK2/JAK1 at JAK1 amounted to 11.09.

For the compound `COc1ccc2c(c1)c(CC(=O)O)c(C)n2C(=O)c1ccc(Cl)cc1` [Indomethacin, reference compound], the “Paw swelling_0.5 h (%)” value in the experiment with male ICR mice (0.5 h) is reported as 32.91 ± 3.22%. In addition, the entries for the “Paw swelling rate_1 h (%)” value with male ICR mice (1 h) and in the experiment on Sprague-Dawley (SD) mice (1 h) were 42.21 ± 4.64% and 34.00 ± 2.30%, respectively. Also, the “Paw swelling rate_2 h (%)” value in the experiment on male ICR mice (2 h) is reported as 55.10 ± 2.21%; in the experiment on Sprague-Dawley (SD) mice (2 h) it was 44.80 ± 3.00%. Moreover, in the experiment on Sprague-Dawley (SD) mice (4 h), the “Paw swelling rate_4 h (%)” value was 42.70 ± 2.00%. Further, the “Paw swelling rate_6 h (%)” value with Sprague-Dawley (SD) mice (6 h) is 36.20 ± 2.00%.

Values taken from US12398141B2 (SHANGHAI SYNERGY PHARMACEUTICAL SCIENCES CO., LTD, priority 2019, dated 2025).
